Laboratory results from article PMC12024397, “Structure–Activity Study of the Antimicrobial Lipopeptide Humimycin A and Screening Against Multidrug-Resistant Staphylococcus aureus” (Antibiotics, 2025).
Values after ≈ are worked out from the molar mass of the structure shown. Non-standard residues stand in square brackets, D forms with d. Residues, ends and D or L forms follow the SMILES beside them. *: point of attachment. Tetradecanoyl(3R-OH) = CCCCCCCCCCC[C@@H](O)CC(=O)*; Tetradecanoyl(3S-OH) = CCCCCCCCCCC[C@H](O)CC(=O)*

Key:
S. aureus strain 4-133 = conditions: broth microdilution, triplicate; isolate 4-133, resistance PEN-CEF-CTX-FOX-CIP-CHL-KAN-GEN
Description: (§1) The bacterial strains used in this study included S. aureus ATCC 29213 and ATCC 43300, B. subtilis ATCC […], E. coli ATCC 25922, P. aeruginosa ATCC 27853, and S. enterica serovar Typhimurium ATCC 14028, all of which were purchased from Cedarlane, Canada. Additionally, a collection of 19 S. aureus strains, ranging from antibiotic-sensitive to multidrug-resistant, and originating from clinical intramammary infections (IMI), was selected from the Mastitis Pathogen Culture Collection of the Canadian Bovine Mastitis Research Network (Université de Montréal, St-Hyacinthe, QC, Canada). These strains, previously used in other studies, were also included in this work. S. aureus ATCC 29213 and B. subtilis ATCC 6633 were cultured in Tryptic Soy Broth (TSB) (Difco^TM, Becton, Dickenson & Company, Spark, MD, USA). E. coli ATCC 25922 and P. aeruginosa ATCC 27853 were grown in Luria–Bertani (LB) broth (Fisher Scientific, Fair Lawn, NJ, USA). S. enterica serovar Typhimurium ATCC 14028 was propagated in Nutrient Broth (NB) (Oxoid, Basingstoke, UK). All bacterial cultures were incubated overnight at 37 °C before use and during the performance of assays.
(§2) MIC assays were performed using the broth microdilution method in 96-well plates. Analogs were serially diluted two-fold from stock solutions. The plates were incubated overnight at 37 °C and bacterial growth was monitored by measuring the absorbance at 595 nm over 18–20 h and the assay was performed in triplicate.

S. aureus strain 4-138 = conditions: broth microdilution, triplicate; isolate 4-138, no resistance profile listed
Description: as §1, §2

S. aureus strain 4-139 = conditions: broth microdilution, triplicate; isolate 4-139, resistance PEN-ERY-CC-TET-KAN
Description: as §1, §2

S. aureus strain 4-145 = conditions: broth microdilution, triplicate; isolate 4-145, no resistance profile listed
Description: as §1, §2

S. aureus strain 4-153 = conditions: broth microdilution, triplicate; isolate 4-153, no resistance profile listed
Description: as §1, §2

S. aureus strain 4-156 = conditions: broth microdilution, triplicate; isolate 4-156, no resistance profile listed
Description: as §1, §2

S. aureus strain 4-157 = conditions: broth microdilution, triplicate; isolate 4-157, no resistance profile listed
Description: as §1, §2

S. aureus strain 4-159 = conditions: broth microdilution, triplicate; isolate 4-159, no resistance profile listed
Description: as §1, §2

S. aureus strain 4-162 = conditions: broth microdilution, triplicate; isolate 4-162, no resistance profile listed
Description: as §1, §2

S. aureus strain 4-172 = conditions: broth microdilution, triplicate; isolate 4-172, resistance PEN-AMC-CEF-CTX-FOX
Description: as §1, §2

S. aureus strain 4-173 = conditions: broth microdilution, triplicate; isolate 4-173, no resistance profile listed
Description: as §1, §2

S. aureus strain 4-171 = format: cell-based, Staphylococcus aureus; conditions: broth microdilution, triplicate; isolate 4-171, resistance PEN-AMC-CEF-CTX-FOX
Description: Analogs were serially diluted two-fold from stock solutions.

[1] = critical micelle concentration, Nile Red fluorescence; format: physicochemical; conditions: overnight equilibration, intersection of linear fits of fluorescence vs log concentration
Procedure: Figure 4 CMC measurements of synthetic humimycin analogs 12R, 12S, 13R, and 13S. The CMC is the concentration at the intersection of the linear fits to the fluorescence intensity against log 10 concentration of peptide. Black circle: monomer; red circle: micelle.
The CMC of synthesized analogs 12R, 12S, 13R, and 13S was determined using the Nile Red fluorescence method, which takes advantage of the dye’s enhanced fluorescence emission in hydrophobic environments. A 500 μM stock solution of Nile Red was prepared in DMSO. Aliquots of 10 μL of this stock solution were added to each well and kept in the dark. Peptide solutions (200 μL) at various concentrations were then added to the well and allowed to equilibrate with the Nile Red overnight. Fluorescence emission spectra were recorded from 485 nm to 636 nm on a SpectraMax i3 spectrofluorometer with an excitation and emission bandwidth 9 nm and 15 nm, respectively. The ratio of the emission intensity was calculated for each peptide concentration and plotted against the logarithm of the peptide concentration. The CMC was determined from the intersection of the linear fits to the data points below and above the transition region in the plot. Tween-20 was used as positive control.

SMILES | MIC (S. aureus strain 4-133) [µg/mL] | MIC (S. aureus strain 4-138) [µg/mL] | MIC (S. aureus strain 4-139) [µg/mL] | MIC (S. aureus strain 4-145) [µg/mL] | MIC (S. aureus strain 4-153) [µg/mL] | MIC (S. aureus strain 4-156) [µg/mL] | MIC (S. aureus strain 4-157) [µg/mL] | MIC (S. aureus strain 4-159) [µg/mL] | MIC (S. aureus strain 4-162) [µg/mL] | MIC (S. aureus strain 4-172) [µg/mL] | MIC (S. aureus strain 4-173) [µg/mL] | MIC (S. aureus strain 4-171) [µg/mL] | CMC [1]
CCCCCCCCCCC[C@@H](O)CC(=O)N[C@@H](Cc1c[nH]c2ccccc12)C(=O)N[C@@H](CO)C(=O)N[C@H](Cc1c[nH]c2ccccc12)C(=O)N[C@@H](Cc1ccccc1)C(=O)N[C@@H](C(=O)N[C@H](C(=O)N[C@H](C(=O)O)C(C)C)C(C)C)[C@H](C)O [12R] ({Tetradecanoyl(3R-OH)}-WS[dW]F[dT]VV-OH) | 256 (≈ 223 µM) | 4 (≈ 3.48 µM) | 4 (≈ 3.48 µM) | 16 (≈ 13.9 µM) | 16 (≈ 13.9 µM) | 4 (≈ 3.48 µM) | 16 (≈ 13.9 µM) | 8 (≈ 6.95 µM) | >256 | 8 (≈ 6.95 µM) | 8 (≈ 6.95 µM) | 2 (≈ 1.74 µM) | approximately 60 μg/mL
CCCCCCCCCCC[C@H](O)CC(=O)N[C@@H](Cc1c[nH]c2ccccc12)C(=O)N[C@@H](CO)C(=O)N[C@H](Cc1c[nH]c2ccccc12)C(=O)N[C@@H](Cc1ccccc1)C(=O)N[C@@H](C(=O)N[C@H](C(=O)N[C@H](C(=O)O)C(C)C)C(C)C)[C@H](C)O [12S] ({Tetradecanoyl(3S-OH)}-WS[dW]F[dT]VV-OH) | 256 (≈ 223 µM) | 4 (≈ 3.48 µM) | 8 (≈ 6.95 µM) | 32 (≈ 27.8 µM) | 16 (≈ 13.9 µM) | 8 (≈ 6.95 µM) | 16 (≈ 13.9 µM) | 16 (≈ 13.9 µM) | >256 | 8 (≈ 6.95 µM) | 16 (≈ 13.9 µM) | 1 (≈ 0.869 µM) | ~70 µg/mL
CCCCCCCCCCC[C@@H](O)CC(=O)N[C@@H](Cc1c[nH]c2ccccc12)C(=O)N[C@@H](CO)C(=O)N[C@H](Cc1c[nH]c2ccccc12)C(=O)N[C@@H](Cc1ccccc1)C(=O)N[C@@H](C(=O)N[C@@H](C)C(=O)N[C@H](C(=O)O)C(C)C)[C@H](C)O [13R] ({Tetradecanoyl(3R-OH)}-WS[dW]F[dT]AV-OH) | >256 | 16 (≈ 14.3 µM) | 8 (≈ 7.13 µM) | 16 (≈ 14.3 µM) | 32 (≈ 28.5 µM) | 16 (≈ 14.3 µM) | 32 (≈ 28.5 µM) | 16 (≈ 14.3 µM) | >256 | 8 (≈ 7.13 µM) | 8 (≈ 7.13 µM) | 0.5 (≈ 0.445 µM) | ~12 µg/mL
CCCCCCCCCCC[C@H](O)CC(=O)N[C@@H](Cc1c[nH]c2ccccc12)C(=O)N[C@@H](CO)C(=O)N[C@H](Cc1c[nH]c2ccccc12)C(=O)N[C@@H](Cc1ccccc1)C(=O)N[C@@H](C(=O)N[C@@H](C)C(=O)N[C@H](C(=O)O)C(C)C)[C@H](C)O [13S] ({Tetradecanoyl(3S-OH)}-WS[dW]F[dT]AV-OH) | >256 | 16 (≈ 14.3 µM) | 8 (≈ 7.13 µM) | 32 (≈ 28.5 µM) | 32 (≈ 28.5 µM) | 8 (≈ 7.13 µM) | 32 (≈ 28.5 µM) | 8 (≈ 7.13 µM) | >256 | 8 (≈ 7.13 µM) | 8 (≈ 7.13 µM) | 8 (≈ 7.13 µM) | ~40 µg/mL
